Experimental data: PubChem BioAssay (NCI)
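Where inhibition never reached the appropriate level, the endpoint shown equals the highest concentration tested. Otherwise, values were interpolated linearly from a five-concentration, 48-hour dose response in 96-well plates. GI50 = concentration required for 50% inhibition of growth. TGI marks complete inhibition of growth.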

Experiments:
Test in all cases: NCI-60 cell line screen, 48 h
[1] = system: A549 NSCLC
[2] = system: COLO 205 colon
[3] = system: HT29 colon
[4] = system: IGROV1 ovarian
[5] = system: LOX IMVI melanoma
[6] = system: NCI-H23 lung
[7] = system: OVCAR-5 ovarian
[8] = system: OVCAR-8 ovarian
[9] = system: UO-31 renal
[10] = system: DU-145 prostate

Structure (SMILES) | TGI [1] | TGI [2] | TGI [3] | TGI [4] | TGI [5] | TGI [6] | TGI [7] | TGI [8] | TGI [9] | TGI [10] | GI50 [1] | GI50 [2] | GI50 [10] | GI50 [4] | GI50 [5] | GI50 [6] | GI50 [7] | GI50 [8] | GI50 [9]
CC1=CC(=O)NP(=O)(Oc2ccc(Cl)cc2)N1 (stereo unspecified) | > 100 µM | > 100 µM | > 100 µM | > 100 µM | > 100 µM | > 100 µM | > 100 µM | > 100 µM | > 100 µM | – | – | – | – | – | – | – | – | – | –
COC(=O)NC1(NC(=O)OC)NC(=O)c2ccccc2N1 | > 100 µM | > 100 µM | > 100 µM | > 100 µM | – | > 100 µM | > 100 µM | > 100 µM | > 100 µM | > 100 µM | – | – | – | – | – | – | – | – | –
CCOC(=O)c1ccc(N=Cc2ccc(N(CCC#N)S(=O)(=O)c3ccccc3)cc2C)cc1 | > 100 µM | 52.9 µM | > 100 µM | > 100 µM | > 100 µM | > 100 µM | > 100 µM | > 100 µM | > 100 µM | – | – | – | – | – | – | – | – | – | –
Cc1nc(-n2nc(-c3ccccc3)cc2-c2ccccc2)sc1C(=O)CC(=O)C(=O)Nc1ccc(Cl)c(Cl)c1 | > 100 µM | > 100 µM | > 100 µM | > 100 µM | > 100 µM | > 100 µM | > 100 µM | > 100 µM | > 100 µM | – | – | – | – | – | – | – | – | – | –
CNc1c2ccccc2nc2occ(Cl)c12 | > 100 µM | > 100 µM | – | > 100 µM | 75.2 µM | > 100 µM | > 100 µM | > 100 µM | > 100 µM | > 100 µM | 31 µM | 30.6 µM | 41.5 µM | 50.5 µM | 25.5 µM | 40.9 µM | 47 µM | 37.7 µM | 31.3 µM
COc1ccc2nc3cc(Cl)ccc3c(Sc3ccc(N)cc3)c2c1 | 30.1 µM | 23.3 µM | – | 32 µM | 20.9 µM | 27.9 µM | 34.8 µM | 23.8 µM | 22.7 µM | – | – | – | – | – | – | – | – | – | –
CC(=O)/C=C1\CC(=O)N(C)c2ccccc2N1 | > 100 µM | > 100 µM | > 100 µM | > 100 µM | > 100 µM | > 100 µM | > 100 µM | > 100 µM | > 100 µM | – | – | – | – | – | – | – | – | – | –
COc1ccc2c(c1OC)C(=O)C2 | > 100 µM | > 100 µM | > 100 µM | – | > 100 µM | > 100 µM | – | > 100 µM | > 100 µM | – | – | – | – | – | – | – | – | – | –
Cn1c(=O)nc2n(-c3ccc(Br)cc3)c3ccccc3nc-2c1=O | 15.1 µM | 11.1 µM | 7.44 µM | 28 µM | – | 4.2 µM | 26.4 µM | 18.3 µM | 37.9 µM | – | – | – | – | – | – | – | – | – | –
Cc1nc2ccccc2c(=O)n1/N=C(\N=Nc1ccc(Cl)cc1)c1cccc(-c2ccco2)c1 | > 100 µM | 89.4 µM | > 100 µM | > 100 µM | > 100 µM | 65.2 µM | – | > 100 µM | 43.1 µM | – | – | – | – | – | – | – | – | – | –
COc1ccccc1/C=C1\C(=O)N(C(=O)Cc2ccccc2)N=C1C | > 100 µM | > 100 µM | > 100 µM | – | > 100 µM | > 100 µM | > 100 µM | > 100 µM | > 100 µM | – | – | – | – | – | – | – | – | – | –
C=CC[P@]1(=O)O[C@H](c2ccccc2)C(C)N1C(C)C (stereo partly specified) | > 100 µM | > 100 µM | > 100 µM | > 100 µM | > 100 µM | > 100 µM | > 100 µM | > 100 µM | > 100 µM | – | – | – | – | – | – | – | – | – | –
O=C1OC(C(O)CO)C(C(O)CO)OC1=O (stereo unspecified) | > 10 µM | > 10 µM | > 10 µM | > 10 µM | – | > 10 µM | > 10 µM | > 10 µM | > 10 µM | – | – | – | – | – | – | – | – | – | –
O=C1NC(c2ccccc2)(c2ccccc2)C(=O)N1CCCCCCN1C(=O)NC(c2ccccc2)(c2ccccc2)C1=O | > 100 µM | > 100 µM | > 100 µM | > 100 µM | > 100 µM | 91.5 µM | > 100 µM | > 100 µM | > 100 µM | – | – | – | – | – | – | – | – | – | –
COC1CCCc2c(OC(C)=O)ccc(OC(C)=O)c21 (stereo unspecified) | > 100 µM | – | – | > 100 µM | > 100 µM | > 100 µM | > 100 µM | – | > 100 µM | – | – | – | – | – | – | – | – | – | –
COc1ccc(-c2cc(=O)c3c(O)c(O)c(OC)cc3o2)cc1O | > 100 µM | > 100 µM | > 100 µM | > 100 µM | > 100 µM | > 100 µM | > 100 µM | > 100 µM | > 100 µM | – | – | – | – | – | – | – | – | – | –
Cc1cccc(NC(=O)c2c(N)[n+]([O-])c3ccccc3[n+]2[O-])c1 | 34.6 µM | 27.2 µM | 27.7 µM | 21.5 µM | – | 23.4 µM | 42.3 µM | 32.3 µM | 32.6 µM | – | – | – | – | – | – | – | – | – | –
